Measurements reported in publication PMC7686313, “Phase 1 study of mTORC1/2 inhibitor sapanisertib (TAK-228) in advanced solid tumours, with an expansion phase in renal, endometrial or bladder cancer” (British Journal of Cancer, 2020).

Test: Safety (adverse events, NCI CTCAE v4.0), dose-escalation phase
[1] = dose-escalation QD × 5dQW 7–13 mg
[2] = dose-escalation Total (n = 116)

Experimental: Patients who received ≥1 dose of sapanisertib were included in the safety population. […] Adverse events (AEs) were assessed using the National Cancer Institute Common Terminology Criteria for Adverse Events, v4.0. Patients were provided with a home blood-glucose meter to monitor their fasting predose blood-glucose measurements to assess hyperglycaemia as an on-target AE and PD marker.

SMILES: CC(C)n1nc(-c2ccc3oc(N)nc3c2)c2c(N)ncnc21 [Sapanisertib]
- Fatigue, treatment-related grade ≥3 AE [1]: 2 (9) n (%)
- Headache, treatment-related AE [1]: 1 (5) n (%)
- Hypercholesterolemia, treatment-related AE [1]: 1 (5) n (%)
- Hyperglycaemia, treatment-related AE [1]: 11 (50) n (%)
- Hyperglycaemia, treatment-related grade ≥3 AE [1]: 1 (5) n (%)
- Hypophosphatemia, treatment-related AE [1]: 2 (9) n (%)
- Hypophosphatemia, treatment-related grade ≥3 AE [1]: 0 (0) n (%)
- Lymphopenia, treatment-related grade ≥3 AE [1]: 0 (0) n (%)
- Nausea, treatment-related AE [1]: 13 (59) n (%)
- Nausea, treatment-related grade ≥3 AE [1]: 1 (5) n (%)
- On-study deaths [1]: 0 n (%)
- Pruritus generalised, treatment-related AE [1]: 1 (5) n (%)
- Pruritus generalised, treatment-related grade ≥3 AE [1]: 0 (0) n (%)
- Pruritus, treatment-related AE [1]: 3 (14) n (%)
- Rash maculo-papular, treatment-related AE [1]: 2 (9) n (%)
- Rash maculo-papular, treatment-related grade ≥3 AE [1]: 1 (5) n (%)
- Rash, treatment-related AE [1]: 3 (14) n (%)
- Rash, treatment-related grade ≥3 AE [1]: 0 (0) n (%)
- Stomatitis (includes oropharyngeal pain and mucosal inflammation), treatment-related AE [1]: 13 (59) n (%)
- Stomatitis, treatment-related grade ≥3 AE [1]: 3 (14) n (%)
- Thrombocytopenia, treatment-related grade ≥3 AE [1]: 0 (0) n (%)
- Vomiting, treatment-related AE [1]: 10 (45) n (%)
- Weight decreased, treatment-related AE [1]: 2 (9) n (%)
- Acute kidney injury, treatment-related AE (dose-escalation QW 7–40 mg): 0 (0) n (%)
- Anaemia, treatment-related AE (dose-escalation QW 7–40 mg): 1 (3) n (%)
- Any AE (dose-escalation QW 7–40 mg): 30 (100) n (%)
- Any AE resulting in dose modification/interruption (dose-escalation QW 7–40 mg): 13 (43) n (%)
- Any AE resulting in treatment discontinuation (dose-escalation QW 7–40 mg): 4 (13) n (%)
- Any SAE (dose-escalation QW 7–40 mg): 10 (33) n (%)
- Any grade ≥3 AE (dose-escalation QW 7–40 mg): 18 (60) n (%)
- Any treatment-related AE (dose-escalation QW 7–40 mg): 28 (93) n (%)
- Any treatment-related SAE (dose-escalation QW 7–40 mg): 0 n (%)
- Any treatment-related grade ≥3 AE (dose-escalation QW 7–40 mg): 8 (27) n (%)
- Asthenia, treatment-related AE (dose-escalation QW 7–40 mg): 12 (40) n (%)
- Asthenia, treatment-related grade ≥3 AE (dose-escalation QW 7–40 mg): 1 (3) n (%)
- Blood creatinine increased, treatment-related AE (dose-escalation QW 7–40 mg): 3 (10) n (%)
- Decreased appetite, treatment-related AE (dose-escalation QW 7–40 mg): 8 (27) n (%)
- Dehydration, treatment-related AE (dose-escalation QW 7–40 mg): 1 (3) n (%)
- Dehydration, treatment-related grade ≥3 AE (dose-escalation QW 7–40 mg): 0 (0) n (%)
- Diarrhoea, treatment-related AE (dose-escalation QW 7–40 mg): 9 (30) n (%)
- Diarrhoea, treatment-related grade ≥3 AE (dose-escalation QW 7–40 mg): 1 (3) n (%)
- Dry mouth, treatment-related AE (dose-escalation QW 7–40 mg): 3 (10) n (%)
- Dysgeusia, treatment-related AE (dose-escalation QW 7–40 mg): 3 (10) n (%)
- Dyspepsia, treatment-related AE (dose-escalation QW 7–40 mg): 1 (3) n (%)
- Fatigue, treatment-related AE (dose-escalation QW 7–40 mg): 8 (27) n (%)
- Fatigue, treatment-related grade ≥3 AE (dose-escalation QW 7–40 mg): 2 (7) n (%)
- Headache, treatment-related AE (dose-escalation QW 7–40 mg): 2 (7) n (%)
- Hypercholesterolemia, treatment-related AE (dose-escalation QW 7–40 mg): 1 (3) n (%)
- Hyperglycaemia, treatment-related AE (dose-escalation QW 7–40 mg): 17 (57) n (%)
- Hyperglycaemia, treatment-related grade ≥3 AE (dose-escalation QW 7–40 mg): 2 (7) n (%)
- Hypophosphatemia, treatment-related AE (dose-escalation QW 7–40 mg): 0 (0) n (%)
- Hypophosphatemia, treatment-related grade ≥3 AE (dose-escalation QW 7–40 mg): 0 (0) n (%)
- Lymphopenia, treatment-related grade ≥3 AE (dose-escalation QW 7–40 mg): 1 (3) n (%)
- Nausea, treatment-related AE (dose-escalation QW 7–40 mg): 22 (73) n (%)
- Nausea, treatment-related grade ≥3 AE (dose-escalation QW 7–40 mg): 0 (0) n (%)
- On-study deaths (dose-escalation QW 7–40 mg): 1 (3) n (%)
- Pruritus generalised, treatment-related AE (dose-escalation QW 7–40 mg): 0 (0) n (%)
- Pruritus generalised, treatment-related grade ≥3 AE (dose-escalation QW 7–40 mg): 0 (0) n (%)
- Pruritus, treatment-related AE (dose-escalation QW 7–40 mg): 2 (7) n (%)
- Rash maculo-papular, treatment-related AE (dose-escalation QW 7–40 mg): 0 (0) n (%)
- Rash maculo-papular, treatment-related grade ≥3 AE (dose-escalation QW 7–40 mg): 0 (0) n (%)
- Rash, treatment-related AE (dose-escalation QW 7–40 mg): 2 (7) n (%)
- Rash, treatment-related grade ≥3 AE (dose-escalation QW 7–40 mg): 0 (0) n (%)
- Stomatitis (includes oropharyngeal pain and mucosal inflammation), treatment-related AE (dose-escalation QW 7–40 mg): 9 (30) n (%)
- Stomatitis, treatment-related grade ≥3 AE (dose-escalation QW 7–40 mg): 0 (0) n (%)
- Thrombocytopenia, treatment-related grade ≥3 AE (dose-escalation QW 7–40 mg): 0 (0) n (%)
- Vomiting, treatment-related AE (dose-escalation QW 7–40 mg): 17 (57) n (%)
- Weight decreased, treatment-related AE (dose-escalation QW 7–40 mg): 2 (7) n (%)
- Acute kidney injury, treatment-related AE [2]: 1 (1) n (%)
- Anaemia, treatment-related AE [2]: 5 (4) n (%)
- Any AE [2]: 116 (100) n (%)
- Any AE resulting in dose modification/interruption [2]: 68 (59) n (%)
- Any AE resulting in treatment discontinuation [2]: 28 (24) n (%)
- Any SAE [2]: 50 (43) n (%)
- Any grade ≥3 AE [2]: 76 (66) n (%)
- Any treatment-related AE [2]: 112 (97) n (%)
- Any treatment-related SAE [2]: 17 (15) n (%)
- Any treatment-related grade ≥3 AE [2]: 49 (42) n (%)
- Asthenia, treatment-related AE [2]: 37 (32) n (%)
- Asthenia, treatment-related grade ≥3 AE [2]: 9 (8) n (%)
- Blood creatinine increased, treatment-related AE [2]: 12 (10) n (%)
- Decreased appetite, treatment-related AE [2]: 43 (37) n (%)
- Dehydration, treatment-related AE [2]: 5 (4) n (%)
- Dehydration, treatment-related grade ≥3 AE [2]: 1 (1) n (%)
- Diarrhoea, treatment-related AE [2]: 41 (35) n (%)
- Diarrhoea, treatment-related grade ≥3 AE [2]: 2 (2) n (%)
- Dry mouth, treatment-related AE [2]: 12 (10) n (%)
- Dysgeusia, treatment-related AE [2]: 19 (16) n (%)
- Dyspepsia, treatment-related AE [2]: 3 (3) n (%)
- Fatigue, treatment-related AE [2]: 35 (30) n (%)
- Fatigue, treatment-related grade ≥3 AE [2]: 4 (3) n (%)
- Headache, treatment-related AE [2]: 6 (5) n (%)
- Hypercholesterolemia, treatment-related AE [2]: 11 (9) n (%)
- Hyperglycaemia, treatment-related AE [2]: 75 (65) n (%)
- Hyperglycaemia, treatment-related grade ≥3 AE [2]: 16 (14) n (%)
- Hypophosphatemia, treatment-related AE [2]: 7 (6) n (%)
- Hypophosphatemia, treatment-related grade ≥3 AE [2]: 3 (3) n (%)
- Lymphopenia, treatment-related grade ≥3 AE [2]: 5 (4) n (%)
- Nausea, treatment-related AE [2]: 71 (61) n (%)
- Nausea, treatment-related grade ≥3 AE [2]: 3 (3) n (%)
- On-study deaths [2]: 4 (3) n (%)
- Pruritus generalised, treatment-related AE [2]: 15 (13) n (%)
- Pruritus generalised, treatment-related grade ≥3 AE [2]: 3 (3) n (%)
- Pruritus, treatment-related AE [2]: 8 (7) n (%)
- Rash maculo-papular, treatment-related AE [2]: 6 (5) n (%)
- Rash maculo-papular, treatment-related grade ≥3 AE [2]: 3 (3) n (%)
- Rash, treatment-related AE [2]: 20 (17) n (%)
- Rash, treatment-related grade ≥3 AE [2]: 2 (2) n (%)
- Stomatitis (includes oropharyngeal pain and mucosal inflammation), treatment-related AE [2]: 56 (48) n (%)
- Stomatitis, treatment-related grade ≥3 AE [2]: 8 (7) n (%)
- Thrombocytopenia, treatment-related grade ≥3 AE [2]: 2 (2) n (%)
- Vomiting, treatment-related AE [2]: 53 (46) n (%)
- Weight decreased, treatment-related AE [2]: 7 (6) n (%)
